Test results taken from patent US11932636B2, “RAD51 inhibitors” (Cyteir Therapeutics, Inc., priority 2019, dated 2024).

System: Daudi cells (AID positive)
Assay: Compound primary screening: cell death in AID positive Daudi cells (Cell-Titer Glo, Day 7)
Format: cell-based
Conditions: Homo sapiens, 168 h; Daudi cells, AID positive; cell death on Day 7, Cell-Titer Glo; read-out: Cellular activity in AID + (Daudi)
Protocol: Example 149. Compound Primary Screening
AID expressing cells are dependent upon RAD51 for survival; inhibiting RAD51 in AID positive cells results in a cytotoxic effect.
A 96 well u-bottom plate was prepared by writing the experiment number, plate number, date and initials in the top right corner of the plate lid. With a sterile 300 ml reservoir, and 25 ml serological pipette, evaporation buffer media was pipetted into reservoir in 25 ml increments. Using the liquid handler, 150 ul of evaporation buffer media was pipetted from reservoir into rows A and H, and Columns 1 and 12 of the 96 well u-bottom plate. Cell cultures were counted to obtain the density of cells per ml, and the culture viability. The cell density information was used to obtain 1,000,000 cells from culture using a 5 mL serological pipette into an epi tube. The cell density information from the culture was used to calculate the number of cells and volume of media needed for the assay to seed 1250 cells in 130 ul of media per available culture well in the 96 well u-bottom plate. Rows B through F were used for cells (50 wells in total), with row G left for an empty media control. The calculation was overestimated by 10 mL to account for the dead volume in the 300 ml reservoir. Once the media volume was calculated, the appropriate volume of media was pipetted in 25 mL increments into the 250 mL bottle using a 25 mL serological pipette. The 250 ml bottle was capped tightly, and placed into a 37° C. water bath for 2 minutes. While the culture media was warming, 10 mL of fresh media was pipetted from the 500 mL culture media bottle into a sterile 25 mL reservoir. Using the Eppendorf multichannel pipette, 130 ul of media was pipetted from the 25 mL reservoir into row G of the 96 well u-bottom plate. Once the 250 mL bottle of media was warmed, the volume of culture needed was pipetted into the bottle, and mixed gently with a 25 mL serological pipette as to not create bubbles, and then the contents of the bottle were pipetted into a new 300 mL reservoir. Using the liquid handler, 130 ul of culture was pipetted from the 300 mL reservoir into rows B through F of the 96 well u-bottom plate. Once the culture was added, the plate was placed into a 37° C. incubator until the compound master plate was prepared for use.
Two 96 well u-bottom plates were prepared by writing the master plate name in the upper right corner of the plate lid. Labeling one DMSO master and the other Media Master. The compounds of interest were obtained from the laboratory freezer, and placed into a 25 well storage box with a lid, and set the box aside. The compounds were vortexed after thawing but before use. Using an automatic multichannel pipette, 20 ul of 100% DMSO was pipetted into wells B3-B11 through G3-G11 of the DMSO master plate. For each compound on the master plate, 50 ul of the compound were pipetted in the appropriate well of row 2 (reference plate map to determine appropriate well). A serial dilution was prepared beginning by aspirating 20 ul from row 2 and mixing with row 3, repeating until row 11 was reached. Using the liquid handler, 194 ul of Daudi media was dispensed into wells B2-B11 through G2-G11 of the Media master plate. Using the liquid handler, 6 ul from the DMSO master plate was aspirated and dispensed into the media master plate, mixing 100 ul twice.
Compounds from master plate were then added to the culture plate. The culture plates were removed from the incubator, and set inside the biosafety cabinet. Using a liquid handler, 20 ul from wells B2 to B11 through G2 to G11 of master plate were aspirated, and dispensed into wells B2 to B11 through G2 to G11 of culture plate. This set was continued with each culture plate. Once the culture plates acquired their 20 ul of compound dilutions, they were placed back into the incubator, until their reads on Day 7 of experiment.
Cell death was measured on Day 7 of the experiment using Cell-Titer Glo and a Promega Plate reader.

Structure (SMILES)	EC50 [µM]
CC(C)OC(=O)N[C@H]1CC[C@H](c2ncc(-c3ccc(CN)cc3S(=O)(=O)NC(C)(C)C)s2)CC1 [Compound 1, isopropyl (trans-4-(5-(4-(aminomethyl)-2-(N-(tert-butyl)sulfamoyl)phenyl)thiazol-2-yl)cyclohexyl)carbamate]	> 10
CC(=O)NCc1ccc(-c2cnc([C@H]3CC[C@H](NC(=O)OC(C)C)CC3)s2)c(S(=O)(=O)NC(C)(C)C)c1 [Compound 2, isopropyl (trans-4-(5-(4-(acetamidomethyl)-2-(N-(tert-butyl)sulfamoyl)phenyl)thiazol-2-yl)cyclohexyl)carbamate]	> 10
CC(C)OC(=O)N[C@H]1CC[C@H](c2ncc(-c3ccc(-c4cnn5ccccc45)cc3S(=O)(=O)NC(C)(C)C)s2)CC1 [Compound 3, isopropyl (trans-4-(5-(2-(N-(tert-butyl)sulfamoyl)-4-(pyrazolo[1,5-a]pyridin-3-yl)phenyl)thiazol-2-yl)cyclohexyl)carbamate]	0.1 to 1
CC(C)OC(=O)N[C@H]1CC[C@H](c2ncc(-c3ccc(-c4cnn(CC(F)(F)F)c4)cc3S(=O)(=O)NC(C)(C)C)s2)CC1 [Compound 4, isopropyl (trans-4-(5-(2-(N-(tert-butyl)sulfamoyl)-4-(1-(2,2,2-trifluoroethyl)-1H-pyrazol-4-yl)phenyl)thiazol-2-yl)cyclohexyl)carbamate]	0.1 to 1
CC(C)OC(=O)N[C@H]1CC[C@H](c2ncc(-c3ccc(-c4cccnc4)cc3S(=O)(=O)NC(C)(C)C)s2)CC1 [Compound 5, isopropyl (trans-4-(5-(2-(N-(tert-butyl)sulfamoyl)-4-(pyridin-3-yl)phenyl)thiazol-2-yl)cyclohexyl)carbamate]	1 to 10
CC(C)OC(=O)N[C@H]1CC[C@H](c2ncc(-c3ccc(-c4cc[nH]n4)cc3S(=O)(=O)NC(C)(C)C)s2)CC1 [Compound 6, isopropyl (trans-4-(5-(2-(N-(tert-butyl)sulfamoyl)-4-(1H-pyrazol-3-yl)phenyl)thiazol-2-yl)cyclohexyl)carbamate]	1 to 10
CC(C)OC(=O)N[C@H]1CC[C@H](c2ncc(-c3ccc(-c4ccc(O)nc4)cc3S(=O)(=O)NC(C)(C)C)s2)CC1 [Compound 7, isopropyl (trans-4-(5-(2-(N-(tert-butyl)sulfamoyl)-4-(6-hydroxypyridin-3-yl)phenyl)thiazol-2-yl)cyclohexyl)carbamate]	1 to 10
COc1ncc(-c2ccc(-c3cnc([C@H]4CC[C@H](NC(=O)OC(C)C)CC4)s3)c(S(=O)(=O)NC(C)(C)C)c2)c(OC)n1 [Compound 8, isopropyl (trans-4-(5-(2-(N-(tert-butyl)sulfamoyl)-4-(2,4-dimethoxypyrimidin-5-yl)phenyl)thiazol-2-yl)cyclohexyl)carbamate]	0.1 to 1
CC(C)OC(=O)N[C@H]1CC[C@H](c2ncc(-c3ccc(-c4ccc5c[nH]nc5c4)cc3S(=O)(=O)NC(C)(C)C)s2)CC1 [Compound 9, isopropyl (trans-4-(5-(2-(N-(tert-butyl)sulfamoyl)-4-(2H-indazol-6-yl)phenyl)thiazol-2-yl)cyclohexyl)carbamate]	1 to 10
CC(C)OC(=O)N[C@H]1CC[C@H](c2ncc(-c3ccc(-c4cnc(N)nc4)cc3S(=O)(=O)NC(C)(C)C)s2)CC1 [Compound 10, isopropyl (trans-4-(5-(4-(2-aminopyrimidin-5-yl)-2-(N-(tert-butyl)sulfamoyl)phenyl)thiazol-2-yl)cyclohexyl)carbamate]	0.1 to 1
CC(C)OC(=O)N[C@H]1CC[C@H](c2ncc(-c3ccc(-c4ccc5occc5c4)cc3S(=O)(=O)NC(C)(C)C)s2)CC1 [Compound 11, isopropyl (trans-4-(5-(4-(benzofuran-5-yl)-2-(N-(tert-butyl)sulfamoyl)phenyl)thiazol-2-yl)cyclohexyl)carbamate]	1 to 10
CC(C)OC(=O)N[C@H]1CC[C@H](c2ncc(-c3ccc(-c4cncnc4)cc3S(=O)(=O)NC(C)(C)C)s2)CC1 [Compound 12, isopropyl (trans-4-(5-(2-(N-(tert-butyl)sulfamoyl)-4-(pyrimidin-5-yl)phenyl)thiazol-2-yl)cyclohexyl)carbamate]	> 10
COc1cc(-c2ccc(-c3cnc([C@H]4CC[C@H](NC(=O)OC(C)C)CC4)s3)c(S(=O)(=O)NC(C)(C)C)c2)c(OC)nn1 [Compound 13, isopropyl (trans-4-(5-(2-(N-(tert-butyl)sulfamoyl)-4-(3,6-dimethoxypyridazin-4-yl)phenyl)thiazol-2-yl)cyclohexyl)carbamate]	0.1 to 1
Cc1ncc(-c2ccc(-c3cnc([C@H]4CC[C@H](NC(=O)OC(C)C)CC4)s3)c(S(=O)(=O)NC(C)(C)C)c2)s1 [Compound 14, isopropyl (trans-4-(5-(2-(N-(tert-butyl)sulfamoyl)-4-(2-methylthiazol-5-yl)phenyl)thiazol-2-yl)cyclohexyl)carbamate]	1 to 10
CC(C)OC(=O)N[C@H]1CC[C@H](c2ncc(-c3ccc(-c4ccc5ncsc5c4)cc3S(=O)(=O)NC(C)(C)C)s2)CC1 [Compound 15, isopropyl (trans-4-(5-(4-(benzo[d]thiazol-6-yl)-2-(N-(tert-butyl)sulfamoyl)phenyl)thiazol-2-yl)cyclohexyl)carbamate]	1 to 10
CC(C)OC(=O)N[C@H]1CC[C@H](c2ncc(-c3ccc(-c4cncc(CN(C)C)c4)cc3S(=O)(=O)NC(C)(C)C)s2)CC1 [Compound 16, isopropyl (trans-4-(5-(2-(N-(tert-butyl)sulfamoyl)-4-(5-((dimethylamino)methyl)pyridin-3-yl)phenyl)thiazol-2-yl)cyclohexyl)carbamate]	1 to 10
Cc1[nH]ncc1-c1ccc(-c2cnc([C@H]3CC[C@H](NC(=O)OC(C)C)CC3)s2)c(S(=O)(=O)NC(C)(C)C)c1 [Compound 17, isopropyl (trans-4-(5-(2-(N-(tert-butyl)sulfamoyl)-4-(5-methyl-1H-pyrazol-4-yl)phenyl)thiazol-2-yl)cyclohexyl)carbamate]	1 to 10
CC(C)OC(=O)N[C@H]1CC[C@H](c2ncc(-c3ccc(-c4ccc(C#N)nc4)cc3S(=O)(=O)NC(C)(C)C)s2)CC1 [Compound 18, isopropyl (trans-4-(5-(2-(N-(tert-butyl)sulfamoyl)-4-(6-cyanopyridin-3-yl)phenyl)thiazol-2-yl)cyclohexyl)carbamate]	1 to 10
CC(C)OC(=O)N[C@H]1CC[C@H](c2ncc(-c3ccc(-c4ccc5nn[nH]c5c4)cc3S(=O)(=O)NC(C)(C)C)s2)CC1 [Compound 19, isopropyl (trans-4-(5-(4-(1H-benzo[d][1,2,3]triazol-6-yl)-2-(N-(tert-butyl)sulfamoyl)phenyl)thiazol-2-yl)cyclohexyl)carbamate]	> 10
CC(C)OC(=O)N[C@H]1CC[C@H](c2ncc(-c3ccc(-c4ccc(CO)nc4)cc3S(=O)(=O)NC(C)(C)C)s2)CC1 [Compound 20, isopropyl (trans-4-(5-(2-(N-(tert-butyl)sulfamoyl)-4-(6-(hydroxymethyl)pyridin-3-yl)phenyl)thiazol-2-yl)cyclohexyl)carbamate]	1 to 10
Cc1c[nH]c2cc(-c3ccc(-c4cnc([C@H]5CC[C@H](NC(=O)OC(C)C)CC5)s4)c(S(=O)(=O)NC(C)(C)C)c3)ccc12 [Compound 21, isopropyl (trans-4-(5-(2-(N-(tert-butyl)sulfamoyl)-4-(3-methyl-1H-indol-6-yl)phenyl)thiazol-2-yl)cyclohexyl)carbamate]	1 to 10
CC(C)OC(=O)N[C@H]1CC[C@H](c2ncc(-c3ccc(-c4ccnc(C(F)(F)F)c4)cc3S(=O)(=O)NC(C)(C)C)s2)CC1 [Compound 22, isopropyl (trans-4-(5-(2-(N-(tert-butyl)sulfamoyl)-4-(2-(trifluoromethyl)pyridin-4-yl)phenyl)thiazol-2-yl)cyclohexyl)carbamate]	1 to 10
